# Test results reported in PubChem BioAssay (NCI).
#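 Exposure lasted 48 hours, with cells grown in 96-well plates and compounds tested at five concentrations. Abbreviation: GI50, concentration required for 50% inhibition of growth. TGI is the concentration that stops growth completely.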
# Experiments:
# Assay in all cases: DTP human tumour cell line panel, 48 h
# UACC-62 melanoma = test system: UACC-62 melanoma
# NCI-H460 lung = test system: NCI-H460 lung
# T-47D breast = test system: T-47D breast
# K-562 leukemia = test system: K-562 leukemia
# SK-MEL-28 melanoma = test system: SK-MEL-28 melanoma
# UO-31 renal = test system: UO-31 renal
# UACC-257 melanoma = test system: UACC-257 melanoma
# CAKI-1 renal = test system: CAKI-1 renal
# NCI-H522 lung = test system: NCI-H522 lung
# HOP-92 NSCLC = test system: HOP-92 NSCLC
# SW-620 colon = test system: SW-620 colon
# MOLT-4 leukemia = test system: MOLT-4 leukemia
# COLO 205 colon = test system: COLO 205 colon
# SK-MEL-5 melanoma = test system: SK-MEL-5 melanoma
# DU-145 prostate = test system: DU-145 prostate
# BT-549 breast = test system: BT-549 breast
# IGROV1 ovarian = test system: IGROV1 ovarian
# OVCAR-4 ovarian = test system: OVCAR-4 ovarian
# SR leukemia = test system: SR leukemia
# M14 melanoma = test system: M14 melanoma
# HS 578T breast = test system: HS 578T breast
# RPMI-8226 leukemia = test system: RPMI-8226 leukemia
# A549 NSCLC = test system: A549 NSCLC
# SNB-19 CNS = test system: SNB-19 CNS
# OVCAR-8 ovarian = test system: OVCAR-8 ovarian
# RXF 393 renal = test system: RXF 393 renal
# 786-0 renal = test system: 786-0 renal
# NCI-H23 lung = test system: NCI-H23 lung
# ACHN renal = test system: ACHN renal
# U251 CNS = test system: U251 CNS
# NCI/ADR-RES ovarian = test system: NCI/ADR-RES ovarian
# SK-MEL-2 melanoma = test system: SK-MEL-2 melanoma
# SNB-75 CNS = test system: SNB-75 CNS
# NCI-H226 lung = test system: NCI-H226 lung
# HCT-116 colon = test system: HCT-116 colon
# HL-60(TB) leukemia = test system: HL-60(TB) leukemia
# MCF7 breast = test system: MCF7 breast
# CCRF-CEM leukemia = test system: CCRF-CEM leukemia
# SK-OV-3 ovarian = test system: SK-OV-3 ovarian
# HCT-15 colon = test system: HCT-15 colon
# PC-3 prostate = test system: PC-3 prostate
# LOX IMVI melanoma = test system: LOX IMVI melanoma
# MDA-MB-435 = test system: MDA-MB-435
# SN12C renal = test system: SN12C renal
# HOP-62 NSCLC = test system: HOP-62 NSCLC
# MDA-MB-231 breast = test system: MDA-MB-231 breast
# SF-539 CNS = test system: SF-539 CNS
# KM12 colon = test system: KM12 colon
# EKVX NSCLC = test system: EKVX NSCLC
# TK-10 renal = test system: TK-10 renal
# HCC-2998 colon = test system: HCC-2998 colon
# A498 renal = test system: A498 renal
# OVCAR-3 ovarian = test system: OVCAR-3 ovarian
# SF-268 CNS = test system: SF-268 CNS
# OVCAR-5 ovarian = test system: OVCAR-5 ovarian
# HT29 colon = test system: HT29 colon
# MALME-3M melanoma = test system: MALME-3M melanoma
compound,measurement,setting,value
O=C(/C=C/c1ccco1)c1ccc(Nc2nc(Nc3ccc(F)cc3)nc(Nc3ccc(Cl)cc3)n2)cc1,GI50,UACC-62 melanoma,> 37.4 µM
same,TGI,UACC-62 melanoma,> 59.5 µM
same,GI50,NCI-H460 lung,9.29 µM
same,TGI,NCI-H460 lung,31.9 µM
same,GI50,T-47D breast,20.3 µM
same,TGI,T-47D breast,> 100 µM
same,GI50,K-562 leukemia,24.3 µM
same,TGI,K-562 leukemia,> 64.8 µM
same,GI50,SK-MEL-28 melanoma,> 40.2 µM
same,TGI,SK-MEL-28 melanoma,> 61.8 µM
same,GI50,UO-31 renal,> 60.8 µM
same,TGI,UO-31 renal,> 100 µM
same,GI50,UACC-257 melanoma,15.2 µM
same,TGI,UACC-257 melanoma,> 57.4 µM
same,GI50,CAKI-1 renal,19.2 µM
same,TGI,CAKI-1 renal,> 54 µM
same,GI50,NCI-H522 lung,31.1 µM
same,TGI,NCI-H522 lung,> 100 µM
same,GI50,HOP-92 NSCLC,2690 nM
same,TGI,HOP-92 NSCLC,> 45.4 µM
same,GI50,SW-620 colon,24.5 µM
same,TGI,SW-620 colon,> 63.3 µM
same,GI50,MOLT-4 leukemia,> 19.8 µM
same,TGI,MOLT-4 leukemia,> 49.7 µM
same,GI50,COLO 205 colon,12.1 µM
same,TGI,COLO 205 colon,> 100 µM
same,GI50,SK-MEL-5 melanoma,23.7 µM
same,TGI,SK-MEL-5 melanoma,> 100 µM
same,GI50,DU-145 prostate,30.9 µM
same,TGI,DU-145 prostate,> 74.7 µM
same,GI50,BT-549 breast,2230 nM
same,TGI,BT-549 breast,> 29.6 µM
same,GI50,IGROV1 ovarian,25.8 µM
same,TGI,IGROV1 ovarian,> 81 µM
same,GI50,OVCAR-4 ovarian,27.1 µM
same,TGI,OVCAR-4 ovarian,> 88.3 µM
same,GI50,SR leukemia,> 20.7 µM
same,TGI,SR leukemia,> 44.5 µM
same,GI50,M14 melanoma,13.5 µM
same,TGI,M14 melanoma,56.9 µM
same,GI50,HS 578T breast,26 µM
same,TGI,HS 578T breast,> 91.4 µM
same,GI50,RPMI-8226 leukemia,2750 nM
same,TGI,RPMI-8226 leukemia,> 82.4 µM
same,GI50,A549 NSCLC,22.3 µM
same,TGI,A549 NSCLC,> 100 µM
same,GI50,SNB-19 CNS,34.8 µM
same,TGI,SNB-19 CNS,> 70 µM
same,GI50,OVCAR-8 ovarian,18.3 µM
same,TGI,OVCAR-8 ovarian,57.3 µM
same,GI50,RXF 393 renal,7.09 µM
same,TGI,RXF 393 renal,45.9 µM
same,GI50,786-0 renal,> 34.3 µM
same,TGI,786-0 renal,> 49.4 µM
same,GI50,NCI-H23 lung,17.9 µM
same,TGI,NCI-H23 lung,> 63.4 µM
same,GI50,ACHN renal,> 45.2 µM
same,TGI,ACHN renal,> 78.9 µM
same,GI50,U251 CNS,19.5 µM
same,TGI,U251 CNS,53.8 µM
same,GI50,NCI/ADR-RES ovarian,26.1 µM
same,TGI,NCI/ADR-RES ovarian,> 100 µM
same,GI50,SK-MEL-2 melanoma,> 49.8 µM
same,TGI,SK-MEL-2 melanoma,> 100 µM
same,GI50,SNB-75 CNS,30.5 µM
same,TGI,SNB-75 CNS,> 80.9 µM
same,GI50,NCI-H226 lung,> 35.4 µM
same,TGI,NCI-H226 lung,> 82.2 µM
same,GI50,HCT-116 colon,16.5 µM
same,TGI,HCT-116 colon,> 54.4 µM
same,GI50,HL-60(TB) leukemia,> 42.3 µM
same,TGI,HL-60(TB) leukemia,98.8 µM
same,GI50,MCF7 breast,1840 nM
same,TGI,MCF7 breast,34.1 µM
same,GI50,CCRF-CEM leukemia,> 37.8 µM
same,TGI,CCRF-CEM leukemia,> 94.4 µM
same,GI50,SK-OV-3 ovarian,26.6 µM
same,TGI,SK-OV-3 ovarian,> 56.2 µM
same,GI50,HCT-15 colon,9.47 µM
same,TGI,HCT-15 colon,> 100 µM
same,GI50,PC-3 prostate,1540 nM
same,TGI,PC-3 prostate,> 37.9 µM
same,GI50,LOX IMVI melanoma,16.1 µM
same,TGI,LOX IMVI melanoma,39.3 µM
same,GI50,MDA-MB-435,30.5 µM
same,TGI,MDA-MB-435,> 59.6 µM
same,GI50,SN12C renal,45.6 µM
same,TGI,SN12C renal,> 100 µM
same,GI50,HOP-62 NSCLC,> 50 µM
same,TGI,HOP-62 NSCLC,> 87.1 µM
same,GI50,MDA-MB-231 breast,16.2 µM
same,TGI,MDA-MB-231 breast,61.9 µM
same,GI50,SF-539 CNS,14.2 µM
same,TGI,SF-539 CNS,28.3 µM
same,GI50,KM12 colon,16.7 µM
same,TGI,KM12 colon,43.4 µM
same,GI50,EKVX NSCLC,> 32.1 µM
same,TGI,EKVX NSCLC,> 60.2 µM
same,GI50,TK-10 renal,10.3 µM
same,TGI,TK-10 renal,> 35.9 µM
same,GI50,HCC-2998 colon,38.1 µM
same,TGI,HCC-2998 colon,> 100 µM
same,GI50,A498 renal,2390 nM
same,TGI,A498 renal,> 65.1 µM
same,GI50,OVCAR-3 ovarian,18 µM
same,TGI,OVCAR-3 ovarian,56.8 µM
same,GI50,SF-268 CNS,34.8 µM
same,TGI,SF-268 CNS,> 86.4 µM
same,GI50,OVCAR-5 ovarian,> 100 µM
same,TGI,OVCAR-5 ovarian,> 100 µM
same,GI50,HT29 colon,15.6 µM
same,TGI,HT29 colon,> 89.7 µM
same,GI50,MALME-3M melanoma,31.9 µM
same,TGI,MALME-3M melanoma,> 66.2 µM
